Experimental data: patent US6399649B1, “Compositions and methods for the treatment of chronic lymphocytic leukemia” (Boston Medical Center Corporation, priority 1998, dated 2002)

Legend:
[1] = tested on: PDE-4B transcript; experiment: Northern analysis of PDE-4B transcript in cultured CLL cells; type: cell-based, human; settings: 10 uMol/L, six hour culture period
Protocol: RNA was isolated from CLL or whole mononuclear cells using Ultraspec reagent (Biotecx, Houston, Tex.). cDNA was synthesized from 10 ug of total RNA using oligo d(T) primers and Maloney murine leukemia virus reverse transcriptase in a final volume of 40 uL (Stratagene, La Jolla, Calif.). One mL of the first strand cDNA product was then used as template for PCR amplification with AmpliTaq DNA polymerase (Roche Molecular Systems, Branchburg, N.J.) by 40 thermocycles of 94° C. for 1 minute, 600° C. for 1 minute and 72° C. for 1 minute. […] For hybridization to Northern blots, these PCR products were subcloned into a plasmid vector (pCRII, Invitrogen, Carlsbad, Calif.) and subsequently utilized for PCR-based amplification of a32P dATP-labelled probes.
RNA was isolated from 20 million CLL cells immediately after cell purification (CT), or after 6 hours culture in media alone (6 Hr) or with addition of 10 uMol/L rolipram (Roli). Equal loading and transfer of RNA was confirmed by hybridization with an actin probe as shown.

[2] = tested on: CLL cells; experiment: DNA ladder gel assay; type: cell-based, human; settings: 72 hours; 10 uMol/L rolipram, 40 uMol/L forskolin
Protocol: 10 million purified CLL cells were harvested by centrifugation following exposure to drugs during a 72 hour tissue culture incubation. Cells were lysed in 0.5 mL of 20 mMol/L Tris (pH 7.4), 0.4 mMol/L EDTA, 0.25% Triton X. After 15 minutes of incubation at room temperature, nuclei were removed by centrifugation at 14,000 rpm (RCF=16,000). The supernatant was transferred to a new tube and soluble DNA precipitated overnight at −20° C. following the addition of […] of 5 Mol/L NaCl and […] of isopropanol. After centrifugation at 14000 rpm for 10 minutes, followed by a 70% ethanol wash, the pellet was resuspended in 20 uL of 10 mMol/L Tris (pH 8.0), 1 mMol/L EDTA, 0.1 mg/mL RNase and incubated at 37° C. for 30 minutes prior to electrophoresis on 1.6% TBE agarose gels. DNA fragments were visualized by UV light after staining the gels with ethidium bromide.
Consequently, a study of the activity of type 4-specific PDE inhibitors as inducers of cAMP-mediated apoptosis in leukemic cells from CLL patients was carried out. CLL cells were incubated for 72 hours either alone or with 10 uMol/L rolipram, 40 uMol/L forskolin or both agents. We tested whether rolipram induces intemucleosomal DNA fragmentation characteristic of apoptosis by isolating soluble DNA from the leukemic cells with detergent treatment, then removing DNA from intact non-apoptotic nuclei by centrifugation. […]

[3] = tested on: CLL cells; experiment: Hoechst 33342 apoptosis assay, CLL cells; type: cell-based, human; settings: for percentage of apoptotic cells: 10 uMol/L rolipram
Protocol: (§1) Hoechst 33342 was dissolved in water and frozen at 33 mg/mL at −20° C. One million cells/well were incubated in duplicate or triplicate in 48 well tissue culture plates (Costar, Cambridge, Mass.) with or without drug treatment for […] in 1 mL of culture media. Cells were transferred to 12×75 mm polystyrene Falcon® 2054 FACS tubes (Becton Dickinson Labware, Lincoln Park, N.J.) and incubated for ten minutes at 37° C. with Hoechst 33342 at a final concentration of […]. 23 Cells were stored on ice until analysis on a FACS Vantage flow cytometer (Becton Dickinson, San Jose, Calif.). Hoechst 33342 dye fluorescence was excited with a UV laser and detected using a 450 bandpass filter; Data was analyzed using Cellquest software (Becton Dickinson, San Jose, Calif.).
As a more quantitative analysis of CLL apoptosis, we utilized a flow cytometry method in which apoptotic cells are distinguished both by their reduced size (FSC) and their increased uptake of the lipophilic UV fluorescent dye Hoechst 33342 (FL-4) when the intact, heterogeneous cell population is incubated with a low concentration of the dye (0.25 ug/mL) for 10 minutes at 37° C. Specifically, cells were cultured for 72 hours in media (1), 1uMol/L rolipram (2), 40 uMol/L forskolin (3) or a combination of the two drugs (FIG. 6). The abcissa reflects forward light scatter and the ordinate Hoechst 33342 fluorescence. Apoptotic cells are characterized by reduced forward light scatter and increased Hoechst 33342 fluorescence. Previous reports of cAMP induced lymphoid apoptosis have noted that this form of programmed cell death may take 48 to 72 hours to develop maximally. […] CLL cells were cultured for 72 hours in one mL of media with the indicated concentration of rolipram with (black bars) or without (stippled bars) the addition of 40 uMol/L forskolin.

[4] = tested on: magnetic bead purified CD19+B cells; experiment: Hoechst 33342 apoptosis assay, CD19+ B cells; type: cell-based, human
Protocol: as §1
This example describes the effect of PDE4 inhibition on normal B and T cells. […] Specifically, one million WMC were cultured with the indicated concentration of rolipram with or without the addition of 40 uMol/L forskolin for 72 hours in the presence of 2 units/mL IL-2. Apoptosis was determined by Hoechst 33342 flow cytometry. […] In contrast, magnetic bead purified CD19+B cells were sensitive to rolipram, although the increment in apoptosis observed was superimposed on a high basal apoptosis rate that has previously been reported in cultured human B cells. Given that crosslinking of cell surface immunoglobulin on resting B cells has been reported to reduce basal and forskolin-induced apoptosis in culture, we also stimulated CD19+ cells with a polyclonal Fab′2 anti-IgM/IgG reagent 30 minutes prior to the addition of the phosphodiesterase inhibitor.

[5] = tested on: CLL cells, resting or anti-Ig activated CD19+ cells, IL-2 supplemented WMC; experiment: cAMP time course in four cell populations; type: cell-based, human; settings: 24 hours; any of the four cell populations
Protocol: […] 0.8 mL of cells were pelleted by spinning at 4,000 rpm (RCF=1,310) in microcentrifuge tube. After discarding 0.7 mL, 400 uL of ethanol was added, vortexed and left on ice for five minutes. Particulate cell debris was removed by centrifugation at 14,000 rpm (RCF=16,000). The supernatant was stored at −20° C. until the day of assay, at which time it was dried in a Speedivac (Savant, Farmingdale, N.Y.) to a volume of 50 uL. After ten-fold dilution in 10 mMol/L Tris pH 8.0, 1 mMol/L EDTA, the cAMP sample was analyzed for cAMP concentration using a cAMP RIA kit (NEN, Boston, Mass.) according to the manufacturer's instructions using the nonacetylated protocol.
For each of the four cell populations, two or six hours after drug treatment, cAMP levels were higher for rolipram/forskolin-treated cells than for forskolin only treated cells (test: one tailed significance level<0.05) (FIG. 9).

[6] = biological target: Type 4 enzymes; settings: cited from earlier work

## COc1ccc(C2CNC(=O)C2)cc1OC1CCCC1 (racemic) [rolipram, 4-(3-cyclopentyloxy-4-methoxyphenyl)-2-pyrrolidone]
[1]
  PDE-4B transcript levels: significantly reduced this fall in PDE-4B transcript levels
[2]
  internucleosomal DNA fragmentation: pronounced internucleosomal DNA fragmentation
[3]; 10 uMol/L, four relatively rolipram-resistant patient samples (Pt #'s 11-14)
  absolute increase in apoptotic cells: less than 33%
[3]; 72 hour culture, rolipram dose range with or without 40 uMol/L forskolin
  CLL cell apoptosis: dose dependent increase in CLL cell apoptosis
[3]; CLL cells derived from two patients
  apoptosis of anti-Ig stimulated CLL cells: failed to protect these cells from rolipram-induced apoptosis
[3]; Pt. 1, Rai III, basal 47, 40 uMol/L forskolin or 100 uMol/L dbcAMP, three days
  percentage of apoptotic cells: 80%
[3]; Pt. 2, Rai IV, Drug Res. Ch, Cy, basal 18 ± 2, 40 uMol/L forskolin or 100 uMol/L dbcAMP, three days
  percentage of apoptotic cells: 79%
[3]; Pt. 3, Rai IV, Drug Res. Ch, CH, basal 38, 40 uMol/L forskolin or 100 uMol/L dbcAMP, three days
  percentage of apoptotic cells: 77 ± 1%
[3]; Pt. 4, Rai I, basal 31 ± 2, 40 uMol/L forskolin or 100 uMol/L dbcAMP, three days
  percentage of apoptotic cells: 76 ± 2%
[3]; Pt. 5, Rai IV, basal 18, 40 uMol/L forskolin or 100 uMol/L dbcAMP, three days
  percentage of apoptotic cells: 57 ± 2%
[3]; Pt. 6, Rai IV, Drug Res. Ch, basal 17 ± 4, 40 uMol/L forskolin or 100 uMol/L dbcAMP, three days
  percentage of apoptotic cells: 54 ± 1%
[3]; Pt. 7, Rai II, Drug Res. Ch, basal 13 ± 2, 40 uMol/L forskolin or 100 uMol/L dbcAMP, three days
  percentage of apoptotic cells: 47 ± 2%
[3]; Pt. 8, Rai 0, basal 5, 40 uMol/L forskolin, three days
  percentage of apoptotic cells: 46%
[3]; Pt. 9, Rai IV, Drug Res. Ch, Cy, Fl, basal 4 ± 0, 40 uMol/L forskolin or 100 uMol/L dbcAMP, three days
  percentage of apoptotic cells: 44 ± 3%
[3]; Pt. 10, Rai I, basal 11, 40 uMol/L forskolin or 100 uMol/L dbcAMP, three days
  percentage of apoptotic cells: 44 ± 0%
[3]; Pt. 11, Rai 0, basal 24 ± 4, 40 uMol/L forskolin or 100 uMol/L dbcAMP, three days
  percentage of apoptotic cells: 40 ± 0%
[3]; Pt. 12, Rai IV, Drug Res. Ch, Fl, 2C, basal 0 ± 4, 40 uMol/L forskolin or 100 uMol/L dbcAMP, three days
  percentage of apoptotic cells: 38 ± 1%
[3]; Pt. 13, Rai 0, basal 2 ± 0, 40 uMol/L forskolin or 100 uMol/L dbcAMP, three days
  percentage of apoptotic cells: 34 ± 0%
[3]; Pt. 14 (significant population of cells with prolymphocyte morphology), Rai I, basal 13 ± 0, 40 uMol/L forskolin or 100 uMol/L dbcAMP, three days
  percentage of apoptotic cells: 14 ± 0%
[3]; rolipram 10 uMol/L, doxorubicin 0.03 or 0.1 uMol/L, three days
  effect on doxorubicin-induced apoptosis: augments doxorubicin-induced apoptosis
[3]; rolipram 10 uMol/L, fludarabine 0.3-3.0 uMol/L, three days
  effect on fludarabine-induced apoptosis: augments fludarabine-induced apoptosis
[3]; rolipram 10 uMol/L, three days
  effect on chlorambucil-induced apoptosis: augments chlorambucil-induced apoptosis
[4]; polyclonal Fab'2 anti-IgM/IgG 30 minutes prior to inhibitor
  apoptosis of anti-Ig stimulated CD19+ B cells: markedly reduced both basal apoptosis and the sensitivity of the B cells to rolipram
[4]; unstimulated, high basal apoptosis rate
  apoptosis of CD19+ B cells: sensitive
[5]
  augmentation of forskolin-stimulated cAMP accumulation: no longer significant rolipram-induced augmentation
[6]
  IC50: 1 µM
